# Measurements as given in paper PMC4686210, “Binding of Cyclic Di-AMP to the Staphylococcus aureus Sensor Kinase KdpD Occurs via the Universal Stress Protein Domain and Downregulates the Expression of the Kdp Potassium Transporter” (Journal of Bacteriology, 2015).
# Molecular target: T1, KdpD (sensor histidine kinase KdpD, KdpD^Sa) (Staphylococcus aureus, UniProt Q2FWH7)
# T1 construct: USP domain, amino acids E225 to F383, MBP fusion [MBP-KdpD(USP)]
# Experiment: DRaCALA with […]-c-di-AMP and purified MBP-KdpD(USP); cold nucleotide competition
# Assay type: binding
# T1 sequence (Q2FWH7 225-383): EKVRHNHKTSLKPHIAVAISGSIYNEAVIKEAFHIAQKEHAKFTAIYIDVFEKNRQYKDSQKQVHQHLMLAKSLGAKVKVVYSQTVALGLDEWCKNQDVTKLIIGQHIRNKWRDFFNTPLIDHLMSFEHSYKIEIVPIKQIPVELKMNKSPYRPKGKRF
compound,measurement,value
Nc1ncnc2c1ncn2[C@@H]1O[C@@H]2COP(=O)(O)O[C@H]3[C@@H](O)[C@H](n4cnc5c(N)ncnc54)O[C@@H]3COP(=O)(O)O[C@H]2[C@H]1O [c-di-AMP],Kd,2 ± 0.18 µM
